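Results reflect a 48-hour exposure of cells in 96-well plates to compound at five concentrations. At the TGI there is no net growth.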

Some test systems named below: COLO 205 colon; PC-3 prostate; OVCAR-8 ovarian; HCT-15 colon; SF-295 CNS; LOX IMVI melanoma; T-47D breast; OVCAR-5 ovarian; HCT-116 colon.
Test in all cases: inhibition of tumour cell growth, NCI panel, 48 h

As to `COC(=O)[C@@H]1C=CCN1S(=O)(=O)c1ccc(C)cc1`, the TGI in the assay with COLO 205 colon, with PC-3 prostate, with OVCAR-8 ovarian, with HCT-15 colon, in the assay on SF-295 CNS and in the assay with LOX IMVI melanoma was above 100 µM in each case. Besides, the TGI with T-47D breast, in the assay on OVCAR-5 ovarian and in the assay on HCT-116 colon was above 100 µM in each case.

Regarding `O=[N+]([O-])/C(Cl)=C(\NCCO)C(Cl)=C(Cl)Cl`, the TGI with COLO 205 colon is 79.3 µM; in the assay on PC-3 prostate, above 100 µM; in the assay with OVCAR-8 ovarian it was above 92.5 µM; with HCT-15 colon, 76.8 µM; with SF-295 CNS, above 100 µM; with LOX IMVI melanoma, above 100 µM. The TGI in the assay on T-47D breast is 99.8 µM; with OVCAR-5 ovarian, above 100 µM; in the assay with HCT-116 colon it was 81.5 µM.

For `COc1ccc(-c2csc3c2[N+]2(C)C=CC=C2C3N2CCCC2)cc1` (stereo not given), the TGI is 42.6 µM with COLO 205 colon; above 100 µM with PC-3 prostate; above 100 µM with OVCAR-8 ovarian; above 100 µM in the assay with HCT-15 colon; 54 µM with SF-295 CNS; above 100 µM with LOX IMVI melanoma. Moreover, the results for the TGI with T-47D breast, in the assay with OVCAR-5 ovarian and with HCT-116 colon were 76.1 µM, above 100 µM and above 100 µM, respectively.

`CC(Cl)(CCC(Cl)C(C)(C)Cl)C(=O)CBr` (stereo not given): the TGI in the assay on COLO 205 colon was found to be 18.4 µM; in the assay with PC-3 prostate, 28.2 µM; in the assay on OVCAR-8 ovarian, 23.7 µM; with HCT-15 colon, 21.7 µM; with SF-295 CNS, 55.4 µM; in the assay on LOX IMVI melanoma, 5.76 µM. Moreover, the TGI with T-47D breast is 50.7 µM; in the assay on OVCAR-5 ovarian it was 31.6 µM; with HCT-116 colon, 18.2 µM.

Turning to `CCOP(=O)(OCC)C(c1ccccc1)N(C(=O)NC(F)(F)F)c1ccc(C)cc1` (stereo not given), the TGI in the assay with COLO 205 colon, in the assay with PC-3 prostate, in the assay with OVCAR-8 ovarian, with HCT-15 colon, in the assay on SF-295 CNS and with LOX IMVI melanoma was above 100 µM in each case. The TGI in the assay on T-47D breast, in the assay with OVCAR-5 ovarian and in the assay with HCT-116 colon was above 100 µM throughout.

For the compound `O=C(CCC(NC(=O)OCc1ccccc1)C(=O)OCc1ccccc1)Nc1cccc(OCc2ccccc2)c1` (stereo not given), the TGI in the assay on COLO 205 colon was 31.9 µM; with PC-3 prostate it was 35.9 µM; with OVCAR-8 ovarian, 78.6 µM; with HCT-15 colon it was 38.8 µM; with SF-295 CNS it was above 100 µM; in the assay with LOX IMVI melanoma, 38.3 µM. The TGI is above 100 µM in the assay with T-47D breast, above 100 µM with OVCAR-5 ovarian and 36.4 µM in the assay with HCT-116 colon.

As to `C(=Nc1ccc(-c2nc3ccccc3s2)cc1)c1cccs1`, the TGI in the assay with COLO 205 colon was above 100 µM; in the assay on PC-3 prostate it was above 100 µM; in the assay on OVCAR-8 ovarian, above 100 µM; with HCT-15 colon, above 100 µM; in the assay on SF-295 CNS, 68.8 µM; in the assay with LOX IMVI melanoma, above 100 µM. The TGI in the assay on T-47D breast, in the assay with OVCAR-5 ovarian and in the assay on HCT-116 colon was above 100 µM each time.

As for `O=C(NC1=C(Cl)C(=O)c2ccccc2C1=O)C(=O)c1c(O)c2ccccc2oc1=O`, the TGI with COLO 205 colon was 17.9 µM; with PC-3 prostate it was above 27.1 µM; with OVCAR-8 ovarian, 31 µM; in the assay on HCT-15 colon, 13.7 µM; with SF-295 CNS it was 9.58 µM; in the assay with LOX IMVI melanoma it was above 45.9 µM. Moreover, the TGI in the assay on T-47D breast is 23.5 µM; with OVCAR-5 ovarian, 26.3 µM; in the assay with HCT-116 colon, 7.47 µM.

With `O=C(Oc1cncc(Cl)c1)c1cc2ccccc2sc1=O`, the TGI in the assay on COLO 205 colon, with PC-3 prostate, with OVCAR-8 ovarian, in the assay with HCT-15 colon, in the assay on SF-295 CNS and in the assay on LOX IMVI melanoma was above 100 µM throughout. The TGI in the assay on T-47D breast, in the assay with OVCAR-5 ovarian and with HCT-116 colon was above 100 µM throughout.

On to `CNCC(SC)c1ccc(O)c(O)c1` (stereo not given), for which the TGI is 32.9 µM in the assay on COLO 205 colon; above 100 µM in the assay with PC-3 prostate; 41.4 µM in the assay with OVCAR-8 ovarian; above 100 µM with HCT-15 colon; above 100 µM in the assay on SF-295 CNS; 84.9 µM in the assay with LOX IMVI melanoma. In addition, the results for the TGI in the assay on T-47D breast, in the assay on OVCAR-5 ovarian and in the assay with HCT-116 colon were 67 µM, above 100 µM and 43.7 µM, respectively.

As for `COC1(C)CCC(OS(C)(=O)=O)CO1` (stereo not given), the TGI in the assay with COLO 205 colon, in the assay on PC-3 prostate, in the assay with OVCAR-8 ovarian, in the assay with HCT-15 colon, with SF-295 CNS and with LOX IMVI melanoma was above 100 µM throughout. The TGI in the assay with T-47D breast, in the assay with OVCAR-5 ovarian and in the assay on HCT-116 colon was above 100 µM each time.

As to `C=CCN1C(=O)C[C@H](Cc2ccccc2)NC(=O)C[C@H](Cc2ccccc2)N(CC=C)C(=O)C[C@H](Cc2ccccc2)NC(=O)C[C@@H]1Cc1ccccc1`, the TGI in the assay with COLO 205 colon is 5.87 µM; in the assay on PC-3 prostate it was above 100 µM; in the assay on OVCAR-8 ovarian, above 100 µM; with HCT-15 colon, above 100 µM; in the assay with SF-295 CNS, above 100 µM; in the assay with LOX IMVI melanoma, above 100 µM. Moreover, the TGI with T-47D breast, in the assay with OVCAR-5 ovarian and in the assay with HCT-116 colon was above 100 µM throughout.

Consider `Cc1ccc(N=Nc2c(O)ccc3ccccc23)c(C)c1`, for which the TGI in the assay on COLO 205 colon, in the assay with PC-3 prostate, in the assay on OVCAR-8 ovarian, in the assay with HCT-15 colon, with SF-295 CNS and in the assay with LOX IMVI melanoma was above 100 µM in each case. For the same compound, the TGI in the assay with T-47D breast, with OVCAR-5 ovarian and with HCT-116 colon was above 100 µM each time.

For the compound `C=CC(C)(C)/C(=C\CO[Si](C(C)C)(C(C)C)C(C)C)C(=O)N(C)c1ccccc1I`, the TGI in the assay on COLO 205 colon turned out to be 31.5 µM; in the assay on PC-3 prostate, 12.6 µM; in the assay on OVCAR-8 ovarian, 28 µM; in the assay with HCT-15 colon it was 30.8 µM; in the assay with SF-295 CNS, 28.8 µM; with LOX IMVI melanoma, 27.4 µM. The TGI was 25.3 µM in the assay with T-47D breast, 27.5 µM with OVCAR-5 ovarian and 17 µM in the assay with HCT-116 colon.

Consider `C#CC(O)/C=C/C(O)CCCC(O)CC#CC(O)C#CCCCCC(O)/C=C/CCCC(=O)CCCCCCCCCCCCCCCC(O)C(O)C#CC(=O)O` (stereo not given), for which the TGI with COLO 205 colon is above 25 µM; in the assay with PC-3 prostate, above 25 µM; in the assay on OVCAR-8 ovarian it was above 25 µM; in the assay with HCT-15 colon, above 25 µM; in the assay on SF-295 CNS, above 25 µM; in the assay on LOX IMVI melanoma, 10.4 µM. For the same compound, the TGI in the assay with T-47D breast, in the assay with OVCAR-5 ovarian and with HCT-116 colon was above 25 µM throughout.

The values above are taken from PubChem BioAssay (NCI).
